# Data reported in patent US20250170246A1 (priority 2022, published 2025).
# “Also recorded” adds a separate entry of the source.
# Columns and labels:
# [1] = cited from earlier work
# [2] = system: SARS CoV-2 (WA1 strain); experiment: SARS CoV-2-infected human precision-cut lung slices, IL-8 in culture supernatants; format: cell-based; conditions: 100 μM CDP-choline added daily, 4×10^5 TCID50 SARS CoV-2 WA1, 2 and 3 dpi, vs. saline
# Source text: CDP-choline reduces SARS CoV-2-induced inflammation in vitro.
# [3] = administered parenterally; cited from earlier work
# [4] = system: influenza; experiment: Antiviral effect against influenza
# [5] = ultimately excreted in expired CO2 and via urine; cited from earlier work
# [6] = system: SARS CoV-2 (WA1 strain); format: in vivo, K18-hACE2-Tg mice
# [7] = multiple human clinical trials; cited from earlier work
# [8] = male K18-hACE2-Tg mice, 5 mg/kg i.p. daily, 4 dpi, relative to infected saline-treated mice
# [9] = male K18-hACE2-Tg mice, 10^5 TCID50 SARS CoV-2 WA1, 5 mg/kg i.p. daily 1-3 dpi, read at 4 dpi
smiles,measurement,setting,value
"C[N+](C)(C)CCOP(=O)(O)OP(=O)(O)OC[C@H]1O[C@@H](n2ccc(N)nc2=O)C(O)C1O (stereo partly shown) [CDP-choline, Cytidine diphosphate-choline]",aqueous solubility,[1],high
same,production of IL-8 by SARS CoV-2-infected human precision-cut lung slices,[2],reduced production; also recorded: significantly reduced; also recorded: attenuated
same,bioavailability,[3],excellent
same,antiviral effect against influenza,[4],no such antiviral effect
same,metabolism of CDP-choline not incorporated into phospholipids,[5],rapidly metabolized into cytidine and choline
same,reduction of whole lung ccl-3/mip-1a gene expression,[6]; CoV-2-infected male K18-hACE2-Tg mice,> 5 fold
same,reduction of whole lung il-6 gene expression,[6]; [8],> 5 fold
same,reduction of whole lung kc/cxcl-1 gene expression,[6]; [8],> 5 fold
same,SARS CoV-2 replication in the lungs (in words),"[6]; male K18-hACE2-Tg mice, 5 mg/kg i.p. daily, 4 dpi, vs. saline, 5 mg/kg",significantly reduces; also recorded: significantly decreased
same,SARS CoV-2-induced bradycardia (heart rate),[6]; [9],prevents development; also recorded: completely prevented; also recorded: attenuated
same,"SARS CoV-2-induced hypoxemia (carotid arterial % O2 saturation, SaO2)",[6]; [9],prevents development; also recorded: completely prevented; also recorded: reversed
same,reduction of viral replication,"[6]; male K18-hACE2-Tg mice, daily post-infection CDP-choline",0.5 logs
same,safety in human clinical trials,[7],safe
